Test results from the NIST ThermoML archive (doi:10.1021/je700339f).
± gives the expanded uncertainty stated by the source.

Assay: xn = mol fraction of the nth substance listed
Details: 298 K, Liquid

ClCCCCCl [1,4-dichlorobutane] + CN(C)C=O
mass density [kg/m3]
Details | x2 = 0.1003 | x2 = 0.1923 | x2 = 0.2994 | x2 = 0.4006 | x2 = 0.5022 | x2 = 0.6004 | x2 = 0.7029 | x2 = 0.7943 | x2 = 0.9006
100 kPa | 1119 ± 4.3 | 1105.1 ± 4.3 | 1087.9 ± 4.2 | 1071.2 ± 4.3 | 1052.4 ± 4.4 | 1034 ± 4.5 | 1013.1 ± 4.7 | 993.4 ± 4.9 | 968.9 ± 5.1
500 kPa | 1119.3 ± 4.4 | 1105.4 ± 4.3 | 1088.2 ± 4.2 | 1071.5 ± 4.3 | 1052.7 ± 4.4 | 1034.2 ± 4.5 | 1013.4 ± 4.7 | 993.7 ± 4.9 | 969.2 ± 5.1
1000 kPa | 1119.7 ± 4.4 | 1105.8 ± 4.3 | 1088.6 ± 4.2 | 1071.8 ± 4.3 | 1053.1 ± 4.4 | 1034.6 ± 4.5 | 1013.8 ± 4.7 | 994 ± 4.9 | 969.6 ± 5.1
1500 kPa | 1120.1 ± 4.4 | 1106.1 ± 4.3 | 1089 ± 4.2 | 1072.2 ± 4.3 | 1053.5 ± 4.4 | 1035 ± 4.5 | 1014.1 ± 4.7 | 994.3 ± 5 | 969.8 ± 5
2000 kPa | 1120.4 ± 4.4 | 1106.5 ± 4.3 | 1089.3 ± 4.2 | 1072.6 ± 4.3 | 1053.8 ± 4.4 | 1035.3 ± 4.5 | 1014.4 ± 4.7 | 994.7 ± 4.9 | 970.2 ± 5.1
2500 kPa | 1120.8 ± 4.4 | 1106.9 ± 4.3 | 1089.7 ± 4.2 | 1072.9 ± 4.3 | 1054.2 ± 4.4 | 1035.7 ± 4.5 | 1014.7 ± 4.7 | 995 ± 4.9 | 970.5 ± 5.1
3000 kPa | 1121.2 ± 4.4 | 1107.3 ± 4.3 | 1090.1 ± 4.2 | 1073.3 ± 4.3 | 1054.5 ± 4.4 | 1036 ± 4.5 | 1015.1 ± 4.7 | 995.4 ± 5 | 970.7 ± 5.1
3500 kPa | 1121.6 ± 4.4 | 1107.7 ± 4.3 | 1090.4 ± 4.3 | 1073.6 ± 4.3 | 1054.8 ± 4.4 | 1036.3 ± 4.5 | 1015.4 ± 4.7 | 995.7 ± 5 | 971.1 ± 5.1
4000 kPa | 1122 ± 4.4 | 1108.1 ± 4.3 | 1090.8 ± 4.3 | 1074 ± 4.3 | 1055.2 ± 4.4 | 1036.7 ± 4.5 | 1015.8 ± 4.7 | 996 ± 5 | 971.4 ± 5.1
4500 kPa | 1122.3 ± 4.5 | 1108.4 ± 4.3 | 1091.2 ± 4.3 | 1074.4 ± 4.3 | 1055.5 ± 4.4 | 1037 ± 4.5 | 1016.1 ± 4.7 | 996.4 ± 5 | 971.8 ± 5.1
5000 kPa | 1122.7 ± 4.5 | 1108.8 ± 4.3 | 1091.6 ± 4.3 | 1074.8 ± 4.3 | 1055.9 ± 4.4 | 1037.4 ± 4.5 | 1016.4 ± 4.7 | 996.7 ± 5 | 972.1 ± 5.1
5500 kPa | 1123.1 ± 4.5 | 1109.2 ± 4.4 | 1091.9 ± 4.3 | 1075.1 ± 4.4 | 1056.2 ± 4.4 | 1037.7 ± 4.5 | 1016.8 ± 4.7 | 996.9 ± 5 | 972.3 ± 5.1
6000 kPa | 1123.4 ± 4.5 | 1109.5 ± 4.4 | 1092.3 ± 4.3 | 1075.4 ± 4.4 | 1056.6 ± 4.4 | 1038.1 ± 4.5 | 1017 ± 4.7 | 997.3 ± 5 | 972.6 ± 5.1
6500 kPa | 1123.8 ± 4.5 | 1109.9 ± 4.4 | 1092.6 ± 4.3 | 1075.9 ± 4.4 | 1057 ± 4.5 | 1038.4 ± 4.5 | 1017.5 ± 4.7 | 997.6 ± 5 | 972.9 ± 5.1
7000 kPa | 1124.2 ± 4.5 | 1110.3 ± 4.4 | 1093 ± 4.3 | 1076.2 ± 4.4 | 1057.2 ± 4.4 | 1038.8 ± 4.5 | 1017.8 ± 4.7 | 997.9 ± 5 | 973.3 ± 5.1
7500 kPa | 1124.6 ± 4.5 | 1110.7 ± 4.4 | 1093.4 ± 4.3 | 1076.6 ± 4.4 | 1057.6 ± 4.5 | 1039.1 ± 4.6 | 1018 ± 4.7 | 998.3 ± 5 | 973.6 ± 5.1
8000 kPa | 1124.9 ± 4.5 | 1111 ± 4.4 | 1093.7 ± 4.3 | 1076.9 ± 4.4 | 1057.9 ± 4.5 | 1039.4 ± 4.5 | 1018.4 ± 4.7 | 998.5 ± 5 | 973.9 ± 5.1
8500 kPa | 1125.2 ± 4.5 | 1111.4 ± 4.4 | 1094 ± 4.3 | 1077.2 ± 4.4 | 1058.3 ± 4.5 | 1039.7 ± 4.6 | 1018.7 ± 4.7 | 998.9 ± 5 | 974.2 ± 5.1
9000 kPa | 1125.6 ± 4.5 | 1111.8 ± 4.4 | 1094.4 ± 4.3 | 1077.6 ± 4.4 | 1058.7 ± 4.5 | 1040.1 ± 4.6 | 1019.1 ± 4.7 | 999.2 ± 5 | 974.5 ± 5.1
9500 kPa | 1126 ± 4.6 | 1112.2 ± 4.4 | 1094.8 ± 4.3 | 1078 ± 4.4 | 1059 ± 4.5 | 1040.4 ± 4.6 | 1019.4 ± 4.7 | 999.5 ± 5 | 974.8 ± 5.1
10000 kPa | 1126.4 ± 4.6 | 1112.6 ± 4.5 | 1095.2 ± 4.4 | 1078.4 ± 4.4 | 1059.3 ± 4.5 | 1040.8 ± 4.6 | 1019.7 ± 4.7 | 999.9 ± 5 | 975.2 ± 5.1
10500 kPa | 1126.8 ± 4.6 | 1112.9 ± 4.5 | 1095.5 ± 4.4 | 1078.7 ± 4.4 | 1059.7 ± 4.5 | 1041.1 ± 4.6 | 1020.1 ± 4.7 | 1000.2 ± 5 | 975.5 ± 5.1
10900 kPa | 1127.1 ± 4.6 | – | – | – | – | – | – | – | –
11000 kPa | – | 1113.3 ± 4.5 | 1095.9 ± 4.4 | 1079.1 ± 4.4 | 1060 ± 4.5 | 1041.5 ± 4.6 | 1020.4 ± 4.4 | – | 975.8 ± 5.9
11500 kPa | 1127.4 ± 4.6 | 1113.6 ± 4.5 | 1096.2 ± 4.4 | 1079.4 ± 4.4 | 1060.3 ± 4.5 | 1041.8 ± 4.6 | 1020.7 ± 4.7 | 1000.8 ± 5 | 976.1 ± 5.1
11900 kPa | – | 1113.9 ± 4.5 | – | – | 1060.6 ± 4.5 | – | – | – | –
12000 kPa | 1127.8 ± 4.2 | – | 1096.6 ± 4.4 | 1079.8 ± 4.4 | – | 1042.1 ± 4.6 | 1021.1 ± 4.7 | 1001.2 ± 5 | 976.4 ± 5.1
12500 kPa | 1128.2 ± 4.6 | 1114.3 ± 4.5 | 1096.9 ± 4.4 | 1080.1 ± 4.4 | 1061 ± 4.5 | 1042.4 ± 4.6 | 1021.4 ± 4.7 | 1001.5 ± 5 | 976.7 ± 5.1
12900 kPa | – | – | – | – | – | – | 1021.7 ± 4.8 | – | –
13000 kPa | 1128.5 ± 4.7 | 1114.7 ± 4.5 | 1097.3 ± 4.4 | 1080.4 ± 4.5 | 1061.3 ± 4.5 | 1042.7 ± 4.6 | – | 1001.7 ± 5 | 976.9 ± 5.1
13500 kPa | 1128.9 ± 4.7 | 1115 ± 4.5 | 1097.7 ± 4.4 | 1080.8 ± 4.5 | 1061.6 ± 4.5 | 1043.1 ± 4.6 | 1022 ± 4.8 | 1002.1 ± 5 | 977.2 ± 5.1
13900 kPa | – | 1115.3 ± 4.5 | – | – | 1062 ± 4.5 | – | – | – | –
14000 kPa | 1129.2 ± 4.2 | – | 1097.9 ± 4.4 | 1081.1 ± 4.5 | – | 1043.4 ± 4.6 | 1022.4 ± 4.8 | 1002.3 ± 5 | 977.5 ± 5.1
14400 kPa | – | – | – | 1081.4 ± 4.5 | – | – | 1022.6 ± 4.8 | – | –
14500 kPa | 1129.5 ± 4.7 | 1115.7 ± 4.6 | 1098.2 ± 4.4 | – | 1062.3 ± 4.5 | 1043.7 ± 4.6 | – | 1002.7 ± 5 | 977.8 ± 5.1
15000 kPa | 1129.9 ± 4.7 | 1116 ± 4.6 | 1098.6 ± 4.4 | 1081.8 ± 4.5 | 1062.6 ± 4.5 | 1044 ± 4.6 | 1023 ± 4.8 | 1003 ± 5 | 978.1 ± 5.1
15500 kPa | 1130.3 ± 4.7 | 1116.4 ± 4.6 | 1099 ± 4.5 | 1082.1 ± 4.5 | 1063 ± 4.5 | 1044.4 ± 4.6 | 1023.2 ± 4.8 | 1003.3 ± 5 | 978.4 ± 5.1
16000 kPa | 1130.6 ± 4.7 | 1116.8 ± 4.6 | 1099.2 ± 4.5 | 1082.5 ± 4.5 | 1063.3 ± 4.6 | 1044.6 ± 4.6 | 1023.5 ± 4.8 | 1003.5 ± 5 | 978.7 ± 5.1
16500 kPa | 1130.9 ± 4.7 | 1117.1 ± 4.6 | 1099.6 ± 4.5 | 1082.8 ± 4.5 | 1063.6 ± 4.5 | 1045 ± 4.6 | 1023.8 ± 4.8 | 1003.8 ± 5 | 978.9 ± 5.1
16900 kPa | – | 1117.4 ± 4.6 | – | – | – | – | 1024.1 ± 4.8 | 1004.1 ± 5 | –
17000 kPa | 1131.3 ± 4.3 | – | 1100 ± 4.5 | 1083.1 ± 4.5 | 1063.9 ± 4.6 | 1045.3 ± 4.6 | – | – | 979.3 ± 2.9
17500 kPa | 1131.6 ± 4.8 | 1117.8 ± 4.6 | 1100.3 ± 4.5 | 1083.5 ± 4.5 | 1064.2 ± 4.6 | 1045.6 ± 4.6 | 1024.4 ± 4.8 | 1004.5 ± 5 | 979.5 ± 5.1
17900 kPa | – | – | – | – | 1064.5 ± 4.6 | – | – | – | –
18000 kPa | 1132 ± 4.8 | 1118.1 ± 4.6 | 1100.6 ± 4.5 | 1083.8 ± 4.5 | – | 1045.9 ± 4.6 | 1024.7 ± 4.8 | 1004.9 ± 5 | 979.8 ± 5.2
18500 kPa | 1132.3 ± 4.8 | 1118.4 ± 4.7 | 1100.9 ± 4.5 | 1084.2 ± 4.5 | 1065 ± 4.6 | 1046.3 ± 4.6 | 1025.1 ± 4.8 | 1005.1 ± 5 | 980 ± 5.2
19000 kPa | 1132.8 ± 4.8 | 1118.8 ± 4.7 | 1101.4 ± 4.5 | 1084.5 ± 4.5 | 1065.3 ± 4.6 | 1046.6 ± 4.6 | 1025.4 ± 4.8 | 1005.5 ± 5 | 980.4 ± 5.2
19400 kPa | – | – | 1101.7 ± 4.5 | – | – | – | – | 1005.7 ± 5 | –
19500 kPa | 1133.1 ± 4.9 | 1119.1 ± 4.7 | – | 1084.9 ± 4.6 | 1065.5 ± 4.6 | 1046.9 ± 4.6 | 1025.7 ± 4.8 | – | 980.7 ± 2.9
20000 kPa | 1133.4 ± 4.9 | 1119.5 ± 4.7 | – | 1085.3 ± 4.6 | 1065.9 ± 4.6 | 1047.2 ± 4.6 | 1026.1 ± 4.8 | 1006.1 ± 5 | 981 ± 5.2
20100 kPa | – | – | 1102.2 ± 4.5 | – | – | – | – | – | –
